The nature of assay [1]: Incorporation into clots induced in a rat model (rat inferior vena cava model). The class given is in vivo, rat (Male Wistar). Particulars: for % id/g (clot) / Rel. Conc. (cpm/g of clot by dose/g animal): sacrificed after 60 min. How it is done: The rats (Male Wistar, 250–350 g) were anaesthetised with 15% urethane. After laparotomy, the vena cava was isolated and freed of surrounding fat tissue. […] The compounds were injected 5 min (fresh clot) and 60 min (aged clot) post-induction. After 60 min the animals were sacrificed and the clot removed, weighed and counted. Other tissues e.g. blood, lung, heart, were also dissected and counted. The uptake of tracer into the clot was determined as the relative concentration (cpm/g of clot by dose/g animal) and clot to background tissue.

For assay [2], the target named is T1, fibrin (in vitro human plasma clot) (Homo sapiens, UniProt P02671+P02675+P02679).
T1 construct: about 400 μl of human plasma containing the radiolabelled substrate; from tissue; host or cells: human plasma, clotted in vitro with added thrombin and calcium chloride
T1 sequence (P02671 20-644 isoform P02671-2 limits assumed): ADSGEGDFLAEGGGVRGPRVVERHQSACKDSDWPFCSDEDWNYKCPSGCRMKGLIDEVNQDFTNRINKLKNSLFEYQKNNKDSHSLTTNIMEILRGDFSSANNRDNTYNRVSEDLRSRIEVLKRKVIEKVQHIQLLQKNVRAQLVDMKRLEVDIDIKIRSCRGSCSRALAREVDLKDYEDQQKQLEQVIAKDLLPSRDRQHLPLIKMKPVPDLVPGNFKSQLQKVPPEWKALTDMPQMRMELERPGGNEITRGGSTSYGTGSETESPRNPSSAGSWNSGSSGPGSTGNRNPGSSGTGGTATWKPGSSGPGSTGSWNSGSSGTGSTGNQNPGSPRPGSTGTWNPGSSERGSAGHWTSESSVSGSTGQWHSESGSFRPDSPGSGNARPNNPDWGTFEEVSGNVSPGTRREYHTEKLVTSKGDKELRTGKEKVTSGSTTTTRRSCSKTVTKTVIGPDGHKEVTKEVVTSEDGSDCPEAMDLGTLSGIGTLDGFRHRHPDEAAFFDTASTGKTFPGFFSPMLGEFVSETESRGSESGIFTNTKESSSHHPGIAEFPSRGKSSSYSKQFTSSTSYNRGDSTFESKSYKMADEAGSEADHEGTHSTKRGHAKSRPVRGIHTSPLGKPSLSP
T1 sequence (P02675 45-491 limits assumed): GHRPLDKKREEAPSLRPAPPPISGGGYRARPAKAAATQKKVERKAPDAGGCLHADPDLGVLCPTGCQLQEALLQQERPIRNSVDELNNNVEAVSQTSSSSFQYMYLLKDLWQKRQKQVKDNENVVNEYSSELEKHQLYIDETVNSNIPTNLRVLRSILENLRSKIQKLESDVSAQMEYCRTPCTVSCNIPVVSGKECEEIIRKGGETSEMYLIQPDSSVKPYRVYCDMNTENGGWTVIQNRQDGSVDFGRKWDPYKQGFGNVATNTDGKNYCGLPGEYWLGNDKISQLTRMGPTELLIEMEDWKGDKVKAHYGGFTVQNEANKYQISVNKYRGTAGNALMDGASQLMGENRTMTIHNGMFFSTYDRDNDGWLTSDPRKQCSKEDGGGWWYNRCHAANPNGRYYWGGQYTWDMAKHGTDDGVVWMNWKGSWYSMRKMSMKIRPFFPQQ
T1 sequence (P02679 27-437 isoform P02679-2 limits assumed): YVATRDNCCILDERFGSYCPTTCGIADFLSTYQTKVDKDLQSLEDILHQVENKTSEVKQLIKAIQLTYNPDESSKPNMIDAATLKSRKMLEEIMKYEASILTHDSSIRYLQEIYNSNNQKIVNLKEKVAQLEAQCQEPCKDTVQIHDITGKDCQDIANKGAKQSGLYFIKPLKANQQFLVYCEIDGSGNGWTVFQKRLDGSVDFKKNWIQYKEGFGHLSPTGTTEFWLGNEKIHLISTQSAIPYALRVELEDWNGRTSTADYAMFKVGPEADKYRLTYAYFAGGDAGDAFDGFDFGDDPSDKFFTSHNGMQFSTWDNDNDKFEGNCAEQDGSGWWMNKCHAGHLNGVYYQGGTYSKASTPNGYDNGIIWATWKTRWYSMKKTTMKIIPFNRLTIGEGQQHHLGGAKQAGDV
Kind of assay: Incorporation into human plasma clots in vitro. The format is biochemical. Particulars: for % specific uptake: % retained (with thrombin) - % retained (no thrombin); for % retained (no thrombin): control without thrombin and calcium chloride (non-specific binding); for % retained (with thrombin): human plasma clot, 60 minutes, ca. 20° C. How it is done:
Incorporation of radiolabelled substrates into fibrin was investigated by induction of an in vitro human plasma clot in the following manner. To a siliconised 5 ml glass vial was added, (a) 800 μl of Tris(hydroxymethyl)aminomethane buffered saline pH 7.5 containing calcium chloride (50 mM Tris, 150 mM sodium chloride, 4 mM calcium chloride.), (b) about 40 μl of physiological salt solution containing 100 units of thrombin per ml, (c) about 400 μl of human plasma containing the radiolabelled substrate at a concentration of typically 10 kBq/ml. To aid induction of clot a roughened glass rod was added to the reaction vial. Control vials were prepared similarly but with the omission of thrombin and calcium chloride.
After incubation of the test solution at ambient laboratory temperature (ca. 20° C.) for 60 minutes the reaction was discontinued with the addition of about 400 μl of a cold solution of 33.5 mM ethylenediaminetetra-acetic acid disodium salt. Clots were separated from serum by vacuum filtration onto […] nitrocellulose filters (pre-soaked in 1.5% BSA/tris(hydroxymethyl)aminoethae buffered saline pH 7.5 containing 0.1% Tween 20) and washed with about 2×10 ml of tris(hydroxymethyl)aminomethane buffered saline pH 7.5 containing Tween 20 to a final concentration of 0.1% v/v. The proportion of total radioactivity was calculated by counting in suitable detection apparatus.
The fraction of radioactivity retained on the filter, after subtraction of the non-specific binding determined from the control, is a measure of incorporation into the filtered clots.

Setting [3] is: Aged Clots: injected 60 min post-induction.
Setting [4] is: Fresh Clots: injected 5 min post-induction.

Entries after “also recorded” stand apart in the source; their conditions may differ.

The text below walks through data of US7049289B1, “Labelled glutamine and lysine analogues” (Amersham PLC, priority 1998, dated 2006).

In assay [1] (Aged Clots), “Ac-NAEAVSPYTLLKG-Pn216 (also: 99mTc complex) [^99mTc-Cmpd 14]” displayed a Clot/blood of 1.4, a Clot/heart of 2, a Clot/liver of 0.7 and a Clot/lung of 1.3. Moreover, in assay [1] (setting [3]), the “% id/g (clot)” value is 0.6 ± 0.4 % id/g and the “Rel. Conc. (cpm/g of clot by dose/g animal)” value is 1.4 ± 0.8. In assay [1] (Fresh Clots), the Clot/blood is listed as 2, the Clot/heart amounted to 3, the Clot/liver stood at 0.7 and the Clot/lung was determined as 1.5. Also, in assay [1] (setting [4]), the “% id/g (clot)” value is listed as 0.5 ± 0.1 % id/g and the “Rel. Conc. (cpm/g of clot by dose/g animal)” value was determined as 1.2 ± 0.2. Further, in assay [2], the “% specific uptake” value is recorded as 2.8%, the “% retained (no thrombin)” value was determined as 0.5%, the “% retained (with thrombin)” value was 3.3% and the “in vitro clot uptake (in words)” value is on record as “significant reduction in uptake; also recorded: large drop in uptake”.
On to “Ac-NQEAVSPYTLLKG-Pn216 (also: 99mTc complex) [^99mTc-Cmpd 13]”, for which, in assay [1] (Aged Clots), the Clot/blood was determined as 6, the Clot/heart turned out to be 29, the Clot/liver was 19 and the Clot/lung is 9. For the same substance, in assay [1] (setting [3]), the “% id/g (clot)” value was determined as 4.5 ± 1.5 % id/g and the “Rel. Conc. (cpm/g of clot by dose/g animal)” value is on record as 10.4 ± 3.0. Besides, in assay [1] (Fresh Clots), the Clot/blood was 7, the Clot/heart came out at 18, the Clot/liver turned out to be 18 and the Clot/lung was 8. Further, in assay [1] (setting [4]), the “% id/g (clot)” value was 3.4 ± 0.7 % id/g and the “Rel. Conc. (cpm/g of clot by dose/g animal)” value was found to be 7.9 ± 1.6. For the same substance, in assay [2], the “% specific uptake” value is given as 56.8%, the “% retained (no thrombin)” value is recorded as 0.2% and the “% retained (with thrombin)” value was found to be 57.0%.
In assay [1] (Aged Clots), “Ac-NQEQ(D-V)(D-S)(D-P)(D-Y)(D-T)(D-L)(D-L)(D-K)G-Pn44 [^99mTc-Cmpd 35]” showed a Clot/blood of 1, a Clot/heart of 1, a Clot/liver of 2 and a Clot/lung of 0.5. Besides, in assay [1] (setting [3]), the “% id/g (clot)” value was found to be 0.6 ± 0.1 % id/g and the “Rel. Conc. (cpm/g of clot by dose/g animal)” value worked out at 1.5 ± 0.4. In addition, in assay [1] (Fresh Clots), the Clot/blood turned out to be 2, the Clot/heart turned out to be 4, the Clot/liver stood at 2 and the Clot/lung came to 2. Further, in assay [1] (setting [4]), the “% id/g (clot)” value stood at 1.2 ± 0.2 % id/g and the “Rel. Conc. (cpm/g of clot by dose/g animal)” value is listed as 3.7 ± 0.8. In assay [2], the “% specific uptake” value is 15.3%, the “% retained (no thrombin)” value was determined as 0.6% and the “% retained (with thrombin)” value came out at 15.9%.
In assay [1] (Aged Clots), “Ac-NQEQ(D-V)(D-S)P(D-Y)TLL(D-K)G-Pn216 [^99mTc-Cmpd 31]” gave a Clot/blood of 0.6, a Clot/heart of 9, a Clot/liver of 2 and a Clot/lung of 4. In addition, in assay [1] (setting [3]), the “% id/g (clot)” value is 0.2 ± 0.1 % id/g and the “Rel. Conc. (cpm/g of clot by dose/g animal)” value was determined as 0.6 ± 0.2. In assay [1] (Fresh Clots), the Clot/blood was determined as 0.6, the Clot/heart turned out to be 2, the Clot/liver was 3 and the Clot/lung is recorded as 1. Further, in assay [1] (setting [4]), the “% id/g (clot)” value is listed as 0.3 ± 0.2 % id/g and the “Rel. Conc. (cpm/g of clot by dose/g animal)” value came out at 0.9 ± 0.6. In assay [2], the “% specific uptake” value is 7.6%, the “% retained (no thrombin)” value is on record as 0.1%, the “% retained (with thrombin)” value is reported as 7.7% and the “in vitro clot uptake (in words)” value was “significant reduction in uptake”.
For the substance “Ac-NQEQVSP(D-Y)TLL(D-K)G-Pn216 [^99mTc-Cmpd 29]”, in assay [1] (Aged Clots), the Clot/blood was 11, the Clot/heart was 67, the Clot/liver came to 29 and the Clot/lung stood at 30. Further, in assay [1] (setting [3]), the “% id/g (clot)” value amounted to 3.8 ± 0.4 % id/g and the “Rel. Conc. (cpm/g of clot by dose/g animal)” value is given as 10.0 ± 1.7. In addition, in assay [1] (Fresh Clots), the Clot/blood stood at 14, the Clot/heart is reported as 44, the Clot/liver is given as 44 and the Clot/lung was 20. Moreover, in assay [1] (setting [4]), the “% id/g (clot)” value is listed as 4.7 ± 1.9 % id/g and the “Rel. Conc. (cpm/g of clot by dose/g animal)” value was determined as 13.0 ± 4.9. In assay [2], the “% specific uptake” value is given as 21.0%, the “% retained (no thrombin)” value amounted to 0.1% and the “% retained (with thrombin)” value is 21.1%.
In assay [1] (Aged Clots), “Ac-NQEQVSP(D-Y)TLL(D-K)βAla-Pn216 [^99mTc-Cmpd 33]” gave a Clot/blood of 16, a Clot/heart of 24, a Clot/liver of 16 and a Clot/lung of 9. In addition, in assay [1] (setting [3]), the “% id/g (clot)” value turned out to be 2.2 ± 0.6 % id/g and the “Rel. Conc. (cpm/g of clot by dose/g animal)” value was determined as 6.7 ± 1.6. In assay [1] (Fresh Clots), this substance displayed a Clot/blood of 11, a Clot/heart of 32, a Clot/liver of 28 and a Clot/lung of 16. Further, in assay [1] (setting [4]), the “% id/g (clot)” value was 2.7 ± 0.2 % id/g and the “Rel. Conc. (cpm/g of clot by dose/g animal)” value was 7.8 ± 0.6. In assay [2], the “% specific uptake” value is on record as 63.8%, the “% retained (no thrombin)” value amounted to 0.1% and the “% retained (with thrombin)” value stood at 63.9%.
In assay [1] (Aged Clots), “Ac-NQEQVSP(I2-Y)TLLKG-Pn216 [^99mTc-Cmpd 23]” returned a Clot/blood of 13, a Clot/heart of 1, a Clot/liver of 1 and a Clot/lung of 1. In addition, in assay [1] (setting [3]), the “% id/g (clot)” value is 7.5 ± 2.5 % id/g and the “Rel. Conc. (cpm/g of clot by dose/g animal)” value stood at 17.6 ± 4.6. In assay [1] (Fresh Clots), this substance returned a Clot/blood of 6, a Clot/heart of 17, a Clot/liver of 21 and a Clot/lung of 6. Further, in assay [1] (setting [4]), the “% id/g (clot)” value stood at 7.6 ± 1.8 % id/g and the “Rel. Conc. (cpm/g of clot by dose/g animal)” value came out at 18.2 ± 4.1. Further, in assay [2], the “% specific uptake” value was determined as 63.7%, the “% retained (no thrombin)” value was found to be 0.1% and the “% retained (with thrombin)” value is recorded as 63.8%.
